{"source": "patent US20030187056A1", "about": "“Live cell procedures to identify to identify compounds modulating intracellular distribution of phosphodiesterase( pde) enzymes” (priority 2000, published 2003)", "key": {"HSPDE4A1-EGFP [1]": {"molecular_target": "T1, HSPDE4A1-EGFP (Homo sapiens, UniProt P27815)", "T1 construct": "the ca. 1.95 kb coding region of HSPDE4A1 (GenBank Acc.no. U97584) is amplified; expressed in transfected cells", "T1 sequence (P27815 1-647 isoform P27815-4)": "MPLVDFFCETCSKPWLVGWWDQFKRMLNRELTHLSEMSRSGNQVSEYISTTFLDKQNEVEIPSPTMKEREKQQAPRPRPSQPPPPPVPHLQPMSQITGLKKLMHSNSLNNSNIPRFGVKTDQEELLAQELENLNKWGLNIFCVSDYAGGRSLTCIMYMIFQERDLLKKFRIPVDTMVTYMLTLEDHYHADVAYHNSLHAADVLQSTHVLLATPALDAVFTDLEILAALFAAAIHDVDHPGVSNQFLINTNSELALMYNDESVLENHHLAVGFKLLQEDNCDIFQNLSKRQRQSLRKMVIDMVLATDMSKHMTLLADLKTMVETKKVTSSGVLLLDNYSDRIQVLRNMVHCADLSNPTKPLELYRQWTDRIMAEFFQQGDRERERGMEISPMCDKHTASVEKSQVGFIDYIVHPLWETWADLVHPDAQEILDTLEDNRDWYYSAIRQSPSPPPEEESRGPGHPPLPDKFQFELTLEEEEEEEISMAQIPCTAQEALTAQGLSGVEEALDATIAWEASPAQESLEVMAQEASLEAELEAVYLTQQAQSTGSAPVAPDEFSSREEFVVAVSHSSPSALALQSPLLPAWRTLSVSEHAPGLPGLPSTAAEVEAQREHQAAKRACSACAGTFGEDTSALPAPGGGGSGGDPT", "assay": "Spot dispersal in CHO cells transfected with HSPDE4A1-EGFP", "assay_type": "cell-based", "description": "(§1) […] The cells are then fixed with 4% formalin buffer (pH7) for 1 hour, washed with PBS and stained with 1 μM Hoechst 33258 in PBS for 10 minutes at 25° C., then washed twice in PBS. Automated images are collected and analysed for the number of spots per cell as described in Example 2.\nas §1"}, "PDE4 [2]": {"system": "PDE4", "conditions": "cited from earlier work"}, "PDE4 [3]": {"system": "T2, PDE4", "T2 construct": "other: Saldou et al., 1998; Such an enzyme preparation may be obtained from cells transfected with and expressing the PDE4 enzyme chosen", "conditions": "Saldou et al., 1998; read-out: IC50 against PDE4; cited from earlier work"}, "HSPDE4A4-H506N-EGFP": {"molecular_target": "T3, HSPDE4A4-H506N-EGFP (Homo sapiens, UniProt P27815, H506N)", "T3 construct": "expressed in transfected cells", "T3 sequence (P27815 whole entry H506N)": "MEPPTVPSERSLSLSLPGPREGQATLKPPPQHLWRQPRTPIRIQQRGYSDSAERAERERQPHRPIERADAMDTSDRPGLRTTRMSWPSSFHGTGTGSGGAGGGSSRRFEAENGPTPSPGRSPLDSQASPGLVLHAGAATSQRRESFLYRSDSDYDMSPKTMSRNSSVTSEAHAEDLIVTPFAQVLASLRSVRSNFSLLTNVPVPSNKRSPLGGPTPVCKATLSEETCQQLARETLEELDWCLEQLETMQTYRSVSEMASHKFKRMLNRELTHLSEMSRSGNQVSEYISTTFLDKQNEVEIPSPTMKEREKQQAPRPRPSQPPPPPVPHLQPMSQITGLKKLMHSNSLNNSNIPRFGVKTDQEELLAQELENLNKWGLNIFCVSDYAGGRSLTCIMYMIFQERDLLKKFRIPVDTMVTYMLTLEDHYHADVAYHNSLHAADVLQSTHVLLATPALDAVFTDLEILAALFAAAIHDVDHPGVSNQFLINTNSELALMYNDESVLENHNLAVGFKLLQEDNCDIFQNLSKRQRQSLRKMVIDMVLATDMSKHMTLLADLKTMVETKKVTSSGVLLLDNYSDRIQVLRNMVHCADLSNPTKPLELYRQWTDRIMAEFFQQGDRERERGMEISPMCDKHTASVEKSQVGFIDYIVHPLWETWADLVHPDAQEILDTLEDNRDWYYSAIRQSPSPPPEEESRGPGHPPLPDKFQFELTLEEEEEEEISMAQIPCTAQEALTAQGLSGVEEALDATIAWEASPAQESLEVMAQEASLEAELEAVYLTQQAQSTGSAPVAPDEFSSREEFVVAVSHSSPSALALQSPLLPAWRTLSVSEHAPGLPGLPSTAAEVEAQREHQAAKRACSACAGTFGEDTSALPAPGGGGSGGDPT", "assay": "Spot formation in CHO cells transfected with HSPDE4A4-H506N-EGFP", "assay_type": "cell-based", "conditions": "clonal CHO, 23.5 hours", "description": "The cells are then fixed with 4% formaldehyde buffer (pH7) for 1 hour, washed with PBS and stained with 1 μM Hoechst 33258 in PBS for 10 minutes at 25° C., then washed twice in PBS. Automated images are collected and analysed for the number of spots per cell as described in Example 2.\nCells are grown in HAM's F12 medium plus 10% FBS plus various concentrations of inhibitors for 23.5 hours. The cells are then fixed with 4% formaldehyde buffer (pH7) for 1 hour, washed with PBS and stained with 1 μM Hoechst 33258 in PBS for 10 minutes at 25° C., then washed twice in PBS. Automated images are collected and analysed for the number of spots per cell as described in Example 2."}, "HSPDE4A1-EGFP [4]": {"molecular_target": "T1, HSPDE4A1-EGFP", "assay": "Competitive assay: reversal of Rolipram-induced spot dispersal, HSPDE4A1-EGFP CHO cells", "assay_type": "cell-based", "conditions": "yes/no"}, "HSPDE4A4catD-EGFP": {"molecular_target": "T4, HSPDE4A4catD-EGFP (Homo sapiens, UniProt P27815+Q08499)", "T4 construct": "the 3′-end catalytic region of HSPDE4D isoforms (nucleotides 700-2019 of HSPDE4D3 cDNA); HSPDE4A4 N-terminal fragment (nucleotides 1-1023 of L20965); expressed in transfected cells", "T4 sequence (P27815+Q08499 fused with the stated changes, form open)": "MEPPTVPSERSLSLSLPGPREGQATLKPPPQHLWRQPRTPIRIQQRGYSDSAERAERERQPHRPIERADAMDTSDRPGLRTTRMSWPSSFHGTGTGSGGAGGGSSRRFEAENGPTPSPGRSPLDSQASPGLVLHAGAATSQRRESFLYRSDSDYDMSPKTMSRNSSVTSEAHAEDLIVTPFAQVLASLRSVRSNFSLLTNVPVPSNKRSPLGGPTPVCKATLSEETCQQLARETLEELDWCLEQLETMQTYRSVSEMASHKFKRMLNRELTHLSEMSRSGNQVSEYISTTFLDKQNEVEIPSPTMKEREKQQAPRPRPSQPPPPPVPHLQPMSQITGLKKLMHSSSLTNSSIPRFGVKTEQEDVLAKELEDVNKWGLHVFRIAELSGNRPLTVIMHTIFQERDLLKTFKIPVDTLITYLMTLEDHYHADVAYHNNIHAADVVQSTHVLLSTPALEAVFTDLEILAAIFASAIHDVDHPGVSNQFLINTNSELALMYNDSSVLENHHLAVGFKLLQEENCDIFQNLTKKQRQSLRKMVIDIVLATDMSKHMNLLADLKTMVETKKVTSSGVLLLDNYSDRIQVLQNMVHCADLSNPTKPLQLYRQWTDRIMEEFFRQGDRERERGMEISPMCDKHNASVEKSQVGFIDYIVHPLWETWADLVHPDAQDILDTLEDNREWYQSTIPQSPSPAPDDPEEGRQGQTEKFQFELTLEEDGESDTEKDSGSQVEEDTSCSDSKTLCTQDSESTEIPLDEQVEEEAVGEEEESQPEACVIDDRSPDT", "assay_type": "cell-based", "description": "Transiently transfected or stably transfected (non-clonal) cells are allowed to adhere to chambered coverglasses in HAM's F12 medium containing 10% FBS."}, "HSPDE4A4-EGFP": {"molecular_target": "T5, HSPDE4A4-EGFP (Homo sapiens, UniProt P27815)", "T5 construct": "expressed in transfected cells", "T5 sequence (P27815 whole entry)": "as the sequence (P27815 whole entry H506N) above, with N506H counted along it", "assay": "Dispersal of preformed Rolipram-induced spots, HSPDE4A4-EGFP CHO cells", "assay_type": "cell-based", "conditions": "yes/no"}, "PDE4A probes": {"system": "PDE4A probes", "assay": "Redistribution of the PDE4A probes (summary)", "assay_type": "cell-based", "conditions": "compound alone"}, "[5]": {"conditions": "human, in vivo; cited from earlier work"}, "PDE3": {"system": "PDE3", "assay": "PDE3 inhibition (literature values, PDE3/PDE4 specificity)", "assay_type": "biochemical", "conditions": "measure of specificity", "description": "These compounds are termed specific to PDE4, since they inhibit other PDEs either weakly or not at all. The inverse ratio between IC50 of a compound to PDE4s versus its inhibition of other cAMP-degrading PDEs, such as PDE3s is often used as a measure of specificity."}}, "note": "Where two headings read alike, the source gives them in different places."}
{"compound": "O=c1c2cccnc2n(-c2cccc([N+](=O)[O-])c2)c(=O)n1Cc1ccncc1", "note": "[RS25344]", "values": [{"measurement": "dispersal of PDE4A1 spots (in words)", "setting": "HSPDE4A1-EGFP [1]; Rolipram 2 micromolar 2 hours, others over the ranges tested", "result": "reduce PDE4A1 spot numbers"}, {"measurement": "EC50", "setting": "HSPDE4A1-EGFP [1]; clonal CHO, 23.5 hours, estimated", "result": 5, "unit": "nM"}, {"measurement": "Removal of PDE4A1 spots", "setting": "HSPDE4A1-EGFP [1]; yes/no", "result": "yes"}, {"measurement": "IC50", "setting": "PDE4 [2]; literature values quoted in Example 5 (Saldou 1998; Ahluwalia 1982; Rubin 1991), read-out: IC50 against PDE4", "result": 0.28, "unit": "nM"}, {"measurement": "Inhibition of PDE4 catalytic activity", "setting": "PDE4 [2]; yes/no", "result": "yes"}, {"measurement": "IC50", "setting": "PDE4 [3]", "result": 0.28, "unit": "nM"}, {"measurement": "EC50", "setting": "HSPDE4A4-H506N-EGFP", "result": 125, "unit": "nM"}, {"measurement": "Reversal of Rolipram-induced removal of PDE4A1 spots", "setting": "HSPDE4A1-EGFP [4]", "result": "no"}, {"measurement": "spot formation (in words)", "setting": "HSPDE4A4catD-EGFP; 1 μM RS25344 32 hours, stably transfected, 10 μM Rolipram 26 hours, transiently transfected", "result": "Many cells in this stable population respond by forming pairs of bright spots"}, {"measurement": "time until spots begin to be visible", "setting": "HSPDE4A4catD-EGFP; after addition of 1 μM RS25344", "result": "about 6 hours"}, {"measurement": "Removal of Rolipram-induced PDE4A4-spots", "setting": "HSPDE4A4-EGFP", "result": "no"}, {"measurement": "redistribution of the PDE4A probes", "setting": "PDE4A probes", "result": "indistinguishable from those induced by Rolipram treatment"}, {"measurement": "Clinical effect", "setting": "[5]", "result": "anti-"}, {"measurement": "Emesis", "setting": "[5]", "result": "yes"}, {"measurement": "(IC50 PDE3)/(IC50 PDE4)", "setting": "PDE3", "result": "1,170,000"}]}
